Laboratory results taken from patent US7148380B2, “Bio-energy muscle relaxants” (priority 2000, dated 2006).

Tested on: contraction of bronchial smooth muscle induced by histamine
Test: By-pass-airflow pressure, bronchial smooth muscle contraction induced by histamine
Format: in vivo, guinea pig
Procedure: The animals were divided as saline, BDM, and aminophylline groups. Each animal was anesthetized with pentobarbital (30 mg/kg, I.P.), the trachea was intubated and connected to respirator. Tidal volume and frequency of the respirator were adjusted to 6˜10 ml and 60˜70 breath/min. respectively.
A small hole on chest wall of the animal was made, resulting in pneumothorax to inhibit spontaneous respiration of the animal. A modified device was used for measuring by-pass-airflow pressure of the airway, reflecting alteration in airway resistance, therefore evaluating status of bronchial smooth muscle contraction induced by histamine. The by-pass-airflow pressures were measured before and at 10, 20, 30, 40, 50, and 60 min after administration of histamine (5˜10 μg, I.P.) as control values. […] Changes in by-pass-airflow pressure caused by histamine before and after saline, BDM, or aminophylline were compared.
A percentage of changes in the airflow pressures before and after administration of the histamine at different time points, defined as the change rate, was calculated according to formula 1 below: Change rate (%)=(PA−PB)/PB×100% (1)
where PA is the airflow pressure after histamine, PB is the pressure before histamine. Values were expressed as mean±SD, paired or group “t” test was used upon the requirement for the statistical analysis. The results were considered significant when p<0.05.

[1] = after drug 10 ml/kg I.P., 10 min after histamine
[2] = after drug 10 ml/kg I.P., 20 min after histamine
[3] = after drug 10 ml/kg I.P., 30 min after histamine
[4] = after drug 10 ml/kg I.P., 40 min after histamine
[5] = after drug 10 ml/kg I.P., 50 min after histamine
[6] = after drug 10 ml/kg I.P., 60 min after histamine
[7] = before drug administration, 10 min after histamine
[8] = before drug administration, 20 min after histamine
[9] = before drug administration, 30 min after histamine
[10] = before drug administration, 40 min after histamine
[11] = before drug administration, 50 min after histamine
[12] = before drug administration, 60 min after histamine

`CC(=O)C(C)=NO` [BDM, 2,3-butanedione monoxime] was tested, and the “by-pass-airflow pressure, A, B. Hist” value (after drug 10 ml/kg I.P. (BDM 0.2M, aminophylline 1.25%), before histamine) was 3.86 ± 0.23 Kpa, the “by-pass-airflow pressure, A, Hist 10 min.” value [1] was 3.42 ± 0.21 Kpa and the “changing rate of by-pass-airflow pressure, A, Hist 10 min.” value [1] was −11.37%. For the same molecule, the “by-pass-airflow pressure, A, Hist 20 min.” value [2] was 3.54 ± 0.21 Kpa, the “changing rate of by-pass-airflow pressure, A, Hist 20 min.” value [2] was −8.22% and the “by-pass-airflow pressure, A, Hist 30 min.” value [3] was 3.56 ± 0.27 Kpa. The “changing rate of by-pass-airflow pressure, A, Hist 30 min.” value [3] was −7.80%, the “by-pass-airflow pressure, A, Hist 40 min.” value [4] was 3.60 ± 0.28 Kpa and the “changing rate of by-pass-airflow pressure, A, Hist 40 min.” value [4] was −6.77%. The “by-pass-airflow pressure, A, Hist 50 min.” value [5] was 3.62 ± 0.29 Kpa, the “changing rate of by-pass-airflow pressure, A, Hist 50 min.” value [5] was −6.25% and the “by-pass-airflow pressure, A, Hist 60 min.” value [6] was 3.66 ± 0.26 Kpa. For the same molecule, the “changing rate of by-pass-airflow pressure, A, Hist 60 min.” value [6] was −5.11%, the “histamine-induced increase in the airflow pressure” value (at 10, 20, 30, 40, and 50 min after administration, p<0.01 or p<0.05) was “significantly reduce” and the “by-pass-airflow pressure, B, Hist 10 min.” value [7] was 3.67 ± 0.16 Kpa. For the same molecule, the “changing rate of by-pass-airflow pressure, B, Hist 10 min.” value [7] was 2.13%, the “by-pass-airflow pressure, B, Hist 20 min.” value [8] was 3.76 ± 0.32 Kpa and the “changing rate of by-pass-airflow pressure, B, Hist 20 min.” value [8] was 4.49%. The “by-pass-airflow pressure, B, Hist 30 min.” value [9] was 3.72 ± 0.21 Kpa, the “changing rate of by-pass-airflow pressure, B, Hist 30 min.” value [9] was 3.52% and the “by-pass-airflow pressure, B, Hist 40 min.” value [10] was 3.72 ± 0.18 Kpa. For the same molecule, the “changing rate of by-pass-airflow pressure, B, Hist 40 min.” value [10] was 3.56%, the “by-pass-airflow pressure, B, Hist 50 min.” value [11] was 3.67 ± 0.23 Kpa and the “changing rate of by-pass-airflow pressure, B, Hist 50 min.” value [11] was 2.06%. The “by-pass-airflow pressure, B, Hist 60 min.” value [12] was 3.68 ± 0.11 Kpa, the “changing rate of by-pass-airflow pressure, B, Hist 60 min.” value [12] was 2.54% and the “by-pass-airflow pressure, B, B. Hist” value (before drug administration, before histamine) was 3.60 ± 0.26 Kpa. For the same molecule, the “changing rate of by-pass-airflow pressure, D, Hist 10 min.” value (difference A minus B, 10 min after histamine) was −13.50%, the “changing rate of by-pass-airflow pressure, D, Hist 20 min.” value (difference A minus B, 20 min after histamine) was −12.72% and the “changing rate of by-pass-airflow pressure, D, Hist 30 min.” value (difference A minus B, 30 min after histamine) was −11.33%. The “changing rate of by-pass-airflow pressure, D, Hist 40 min.” value (difference A minus B, 40 min after histamine) was −10.34%, the “changing rate of by-pass-airflow pressure, D, Hist 50 min.” value (difference A minus B, 50 min after histamine) was −8.31% and the “changing rate of by-pass-airflow pressure, D, Hist 60 min.” value (difference A minus B, 60 min after histamine) was −7.65%.
